# In publication PMC5428881 (Chemical communications (Cambridge, England), 2011):
# Tested on: HeLa cells
# Assay: Cell permeability by fluorescence activated cell sorting
# Assay type: cell-based
# Settings: FACS, 10 μM N-terminally fluorescein-conjugated peptide, 2 versus 1
sequence,measurement,value
LTFCRYWARLCS [compound 2],increase in mean fluorescence (cell permeability),2.5 fold
